Reference: patent US20150311441A1, “METAL COMPLEX COMPOUND, AND ORGANIC LIGHT-EMITTING ELEMENT AND DISPLAY DEVICE CONTAINING THE SAME” (CANON KABUSHIKI KAISHA, priority 2014, published 2015)

Assay: Stability to water of a deposition film
Details: for State of the film after 5 min (stability to water): 100 nm deposition film on glass substrate, water dropped on film, state after 5 minutes measured with thickness profiler (Alpha-Step); for Dissolution of the film in water: deposition film in contact with water, summary of the Table 1 test
Experimental: The stability to water of the metal complex compound was examined. A deposition film was formed to a thickness of 100 nm on a glass substrate, and water was dropped on the deposition film. After 5 minutes, the state of the film was measured with a thickness profiler (Alpha-Step). Also, the stability to water of lithium fluoride and cesium fluoride, which are generally used as an electron injection material, were examined for comparison.

SMILES | State of the film after 5 min (stability to water) | Dissolution of the film in water
[Cs+].[F-] [compound 2, cesium fluoride] | Dissolved | dissolved in water immediately
[F-].[Li+] [compound 1, lithium fluoride] | Dissolved | dissolved in water immediately
